Laboratory results: the kinase profiling compilation of Christmann-Franck et al. (2016)
“And” between values parts separate entries of the source, which are not always exact repeats. Equal values may be shown once.

How the values were obtained:
Assay in all cases: radiometric filter-binding kinase assay, Kinase HotSpot
Settings in all cases: compound 0.5 µM; ATP 10 µM
ADRBK1 (human) = ADRBK1 (human) (UniProt P25098)
INSR (human) = INSR (human) (UniProt P06213)
YES1 (human) = YES1 (human) (UniProt P07947)
FGR (human) = FGR (human) (UniProt P09769)
TLK2 (human) = TLK2 (human) (UniProt Q86UE8)
PAK7 (human) = PAK7 (human) (UniProt Q9P286)
MAP3K10 (human) = MAP3K10 (human) (UniProt Q02779)
CHEK1 (human) = CHEK1 (human) (UniProt O14757)
STK38 (human) = STK38 (human) (UniProt Q15208)
CDC42BPA (human) = CDC42BPA (human) (UniProt Q5VT25)
DYRK1B (human) = DYRK1B (human) (UniProt Q9Y463)
LYN (human) = LYN (human) (UniProt P07948)
CAMK1D (human) = CAMK1D (human) (UniProt Q8IU85)
EGFR (human) = EGFR (human) (UniProt P00533)
ULK3 (human) = ULK3 (human) (UniProt Q6PHR2)
NUAK1 (human) = NUAK1 (human) (UniProt O60285)
DAPK2 (human) = DAPK2 (human) (UniProt Q9UIK4)
ADRBK2 (human) = ADRBK2 (human) (UniProt P35626)
DSTYK (human) = DSTYK (human) (UniProt Q6XUX3)
RPS6KA4 KD2 (human) = RPS6KA4 KD2 (human) (UniProt O75676)
RPS6KA1 KD1 KD2 (human) = RPS6KA1 KD1 KD2 (human) (UniProt Q15418)
EPHA6 (human) = EPHA6 (human) (UniProt Q9UF33)
BRAF (human) = BRAF (human) (UniProt P15056)
TAOK1 (human) = TAOK1 (human) (UniProt Q7L7X3)
CAMKK2 (human) = CAMKK2 (human) (UniProt Q96RR4)
TYRO3 (human) = TYRO3 (human) (UniProt Q06418)
JAK2 JH1 JH2 (human) = JAK2 JH1 JH2 (human) (UniProt O60674)
NTRK2 (human) = NTRK2 (human) (UniProt Q16620)
SRMS (human) = SRMS (human) (UniProt Q9H3Y6)
OXSR1 (human) = OXSR1 (human) (UniProt O95747)
PLK3 (human) = PLK3 (human) (UniProt Q9H4B4)
ABL2 (human) = ABL2 (human) (UniProt P42684)
PIM3 (human) = PIM3 (human) (UniProt Q86V86)
ULK2 (human) = ULK2 (human) (UniProt Q8IYT8)
WEE1 (human) = WEE1 (human) (UniProt P30291)
STK25 (human) = STK25 (human) (UniProt O00506)
ERBB2 (human) = ERBB2 (human) (UniProt P04626)
LCK (human) = LCK (human) (UniProt P06239)
EPHB4 (human) = EPHB4 (human) (UniProt P54760)
PRKACG (human) = PRKACG (human) (UniProt P22612)
MYO3B (human) = MYO3B (human) (UniProt Q8WXR4)
PRKG1 (human) = PRKG1 (human) (UniProt Q13976)
PRKG1 (human), sequence (Q13976 whole entry, looked up): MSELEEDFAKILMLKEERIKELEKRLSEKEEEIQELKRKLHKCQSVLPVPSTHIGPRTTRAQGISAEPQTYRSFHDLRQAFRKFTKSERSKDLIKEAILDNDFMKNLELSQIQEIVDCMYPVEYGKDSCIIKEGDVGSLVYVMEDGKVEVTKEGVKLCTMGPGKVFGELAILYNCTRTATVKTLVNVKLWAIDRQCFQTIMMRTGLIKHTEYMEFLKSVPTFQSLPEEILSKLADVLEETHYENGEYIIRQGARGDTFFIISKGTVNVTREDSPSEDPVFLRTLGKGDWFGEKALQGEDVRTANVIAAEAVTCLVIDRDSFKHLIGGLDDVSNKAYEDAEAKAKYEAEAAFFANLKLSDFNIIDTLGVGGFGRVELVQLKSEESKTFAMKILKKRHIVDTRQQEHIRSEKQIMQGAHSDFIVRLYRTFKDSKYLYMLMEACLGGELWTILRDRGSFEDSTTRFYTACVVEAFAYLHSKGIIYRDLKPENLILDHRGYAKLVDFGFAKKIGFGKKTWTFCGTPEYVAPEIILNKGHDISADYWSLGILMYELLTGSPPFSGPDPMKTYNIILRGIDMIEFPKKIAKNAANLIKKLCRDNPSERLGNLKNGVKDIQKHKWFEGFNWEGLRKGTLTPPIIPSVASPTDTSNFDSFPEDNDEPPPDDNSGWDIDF

LYN (human), sequence (P07948 whole entry, looked up): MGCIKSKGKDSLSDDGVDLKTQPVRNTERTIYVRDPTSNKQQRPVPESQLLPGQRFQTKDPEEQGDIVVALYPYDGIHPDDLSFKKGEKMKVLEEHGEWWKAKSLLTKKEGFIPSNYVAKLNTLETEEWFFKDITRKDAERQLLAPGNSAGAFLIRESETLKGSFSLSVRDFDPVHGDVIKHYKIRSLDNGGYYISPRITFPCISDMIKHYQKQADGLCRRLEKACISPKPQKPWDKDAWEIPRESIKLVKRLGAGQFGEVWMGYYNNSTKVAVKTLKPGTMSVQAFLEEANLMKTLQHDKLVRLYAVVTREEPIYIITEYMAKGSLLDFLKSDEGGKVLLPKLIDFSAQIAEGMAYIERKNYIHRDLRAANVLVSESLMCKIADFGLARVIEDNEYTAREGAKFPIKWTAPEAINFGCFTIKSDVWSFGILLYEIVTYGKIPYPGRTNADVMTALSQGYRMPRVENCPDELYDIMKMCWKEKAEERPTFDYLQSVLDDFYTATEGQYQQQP
EPHB4 (human), sequence (P54760 whole entry, looked up): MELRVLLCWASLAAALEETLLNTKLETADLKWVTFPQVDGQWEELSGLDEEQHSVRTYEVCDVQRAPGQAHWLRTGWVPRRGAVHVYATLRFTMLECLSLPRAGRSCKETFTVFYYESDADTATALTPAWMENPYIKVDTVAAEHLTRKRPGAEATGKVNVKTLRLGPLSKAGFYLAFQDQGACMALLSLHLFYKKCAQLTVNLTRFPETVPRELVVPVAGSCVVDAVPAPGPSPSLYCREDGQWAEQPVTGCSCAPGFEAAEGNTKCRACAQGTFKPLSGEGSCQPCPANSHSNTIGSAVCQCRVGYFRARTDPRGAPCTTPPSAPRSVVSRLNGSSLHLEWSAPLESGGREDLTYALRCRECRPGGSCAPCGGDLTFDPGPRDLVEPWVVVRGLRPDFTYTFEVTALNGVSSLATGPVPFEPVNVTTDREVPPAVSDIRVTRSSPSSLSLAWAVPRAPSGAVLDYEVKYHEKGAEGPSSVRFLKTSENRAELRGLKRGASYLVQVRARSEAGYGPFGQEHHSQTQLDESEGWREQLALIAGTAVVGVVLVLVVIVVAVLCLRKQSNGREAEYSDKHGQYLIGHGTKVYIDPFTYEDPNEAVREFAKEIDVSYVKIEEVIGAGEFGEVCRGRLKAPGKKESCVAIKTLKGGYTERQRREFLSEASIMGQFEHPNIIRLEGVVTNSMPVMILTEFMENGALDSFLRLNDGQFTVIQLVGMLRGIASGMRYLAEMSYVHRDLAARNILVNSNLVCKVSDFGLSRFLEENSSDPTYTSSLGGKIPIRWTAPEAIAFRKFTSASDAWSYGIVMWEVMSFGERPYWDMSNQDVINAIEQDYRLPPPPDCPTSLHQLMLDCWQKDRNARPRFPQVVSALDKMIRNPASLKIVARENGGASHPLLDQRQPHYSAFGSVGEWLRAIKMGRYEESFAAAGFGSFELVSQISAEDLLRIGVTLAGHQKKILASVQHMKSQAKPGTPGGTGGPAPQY
TYRO3 (human), sequence (Q06418 whole entry, looked up): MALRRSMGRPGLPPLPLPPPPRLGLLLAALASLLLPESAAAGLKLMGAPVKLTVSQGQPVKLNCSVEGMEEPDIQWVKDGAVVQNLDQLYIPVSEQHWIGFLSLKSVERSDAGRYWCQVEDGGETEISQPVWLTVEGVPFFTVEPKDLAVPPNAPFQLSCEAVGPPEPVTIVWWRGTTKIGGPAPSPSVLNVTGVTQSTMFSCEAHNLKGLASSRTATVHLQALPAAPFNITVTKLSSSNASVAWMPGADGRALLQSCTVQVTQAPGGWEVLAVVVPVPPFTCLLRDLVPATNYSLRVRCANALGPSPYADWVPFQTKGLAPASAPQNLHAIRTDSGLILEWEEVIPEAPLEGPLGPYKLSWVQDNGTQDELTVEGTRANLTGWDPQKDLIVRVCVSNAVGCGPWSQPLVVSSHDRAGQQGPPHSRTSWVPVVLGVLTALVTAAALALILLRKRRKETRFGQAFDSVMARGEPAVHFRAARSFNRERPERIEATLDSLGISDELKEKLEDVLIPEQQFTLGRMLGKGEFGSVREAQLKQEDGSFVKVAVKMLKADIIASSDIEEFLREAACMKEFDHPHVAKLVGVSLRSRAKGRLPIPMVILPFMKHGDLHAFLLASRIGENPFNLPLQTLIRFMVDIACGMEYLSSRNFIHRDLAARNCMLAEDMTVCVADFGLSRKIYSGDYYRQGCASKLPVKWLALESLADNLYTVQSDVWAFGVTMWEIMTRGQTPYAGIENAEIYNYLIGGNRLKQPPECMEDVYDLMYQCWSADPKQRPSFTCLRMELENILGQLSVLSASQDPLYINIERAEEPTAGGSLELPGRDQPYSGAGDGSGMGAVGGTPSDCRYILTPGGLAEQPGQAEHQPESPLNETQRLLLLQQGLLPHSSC
WEE1 (human), sequence (P30291 whole entry, looked up): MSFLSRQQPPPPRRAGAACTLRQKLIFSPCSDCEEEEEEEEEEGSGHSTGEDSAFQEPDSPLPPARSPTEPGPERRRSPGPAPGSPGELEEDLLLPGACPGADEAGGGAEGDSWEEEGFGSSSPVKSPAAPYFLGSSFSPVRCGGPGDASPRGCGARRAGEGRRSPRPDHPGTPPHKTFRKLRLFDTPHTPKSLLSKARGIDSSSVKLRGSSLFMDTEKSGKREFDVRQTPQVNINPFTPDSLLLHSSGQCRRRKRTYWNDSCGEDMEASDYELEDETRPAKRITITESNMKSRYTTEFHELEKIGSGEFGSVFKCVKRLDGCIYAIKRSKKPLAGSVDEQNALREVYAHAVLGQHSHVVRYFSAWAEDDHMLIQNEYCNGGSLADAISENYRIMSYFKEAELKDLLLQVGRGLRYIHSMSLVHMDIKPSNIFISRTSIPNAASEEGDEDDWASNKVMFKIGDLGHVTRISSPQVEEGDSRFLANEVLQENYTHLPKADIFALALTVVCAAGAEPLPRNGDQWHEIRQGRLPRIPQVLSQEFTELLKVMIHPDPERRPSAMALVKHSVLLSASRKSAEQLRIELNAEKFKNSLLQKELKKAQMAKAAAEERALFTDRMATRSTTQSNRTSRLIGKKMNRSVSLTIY
RPS6KA4 KD2 (human), sequence (O75676 whole entry, looked up): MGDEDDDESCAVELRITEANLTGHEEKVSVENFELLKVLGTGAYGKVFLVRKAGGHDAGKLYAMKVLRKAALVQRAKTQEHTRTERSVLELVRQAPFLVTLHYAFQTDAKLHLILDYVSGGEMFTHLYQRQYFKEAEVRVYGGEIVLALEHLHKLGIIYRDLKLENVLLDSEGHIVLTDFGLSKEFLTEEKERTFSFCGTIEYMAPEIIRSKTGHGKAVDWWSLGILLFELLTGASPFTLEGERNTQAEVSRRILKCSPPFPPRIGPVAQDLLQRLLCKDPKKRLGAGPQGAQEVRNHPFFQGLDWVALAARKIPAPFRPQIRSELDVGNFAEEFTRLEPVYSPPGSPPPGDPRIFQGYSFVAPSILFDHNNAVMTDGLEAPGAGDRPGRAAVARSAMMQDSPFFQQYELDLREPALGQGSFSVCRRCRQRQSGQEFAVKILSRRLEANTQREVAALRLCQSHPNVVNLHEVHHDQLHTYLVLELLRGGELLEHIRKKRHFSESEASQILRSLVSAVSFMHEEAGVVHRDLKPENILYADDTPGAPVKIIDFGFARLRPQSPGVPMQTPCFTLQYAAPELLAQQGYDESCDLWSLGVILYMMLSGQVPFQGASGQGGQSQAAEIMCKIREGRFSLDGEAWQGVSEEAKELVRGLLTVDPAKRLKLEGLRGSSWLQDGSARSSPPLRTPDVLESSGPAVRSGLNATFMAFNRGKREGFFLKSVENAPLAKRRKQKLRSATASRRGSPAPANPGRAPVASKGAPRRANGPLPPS
YES1 (human), sequence (P07947 whole entry, looked up): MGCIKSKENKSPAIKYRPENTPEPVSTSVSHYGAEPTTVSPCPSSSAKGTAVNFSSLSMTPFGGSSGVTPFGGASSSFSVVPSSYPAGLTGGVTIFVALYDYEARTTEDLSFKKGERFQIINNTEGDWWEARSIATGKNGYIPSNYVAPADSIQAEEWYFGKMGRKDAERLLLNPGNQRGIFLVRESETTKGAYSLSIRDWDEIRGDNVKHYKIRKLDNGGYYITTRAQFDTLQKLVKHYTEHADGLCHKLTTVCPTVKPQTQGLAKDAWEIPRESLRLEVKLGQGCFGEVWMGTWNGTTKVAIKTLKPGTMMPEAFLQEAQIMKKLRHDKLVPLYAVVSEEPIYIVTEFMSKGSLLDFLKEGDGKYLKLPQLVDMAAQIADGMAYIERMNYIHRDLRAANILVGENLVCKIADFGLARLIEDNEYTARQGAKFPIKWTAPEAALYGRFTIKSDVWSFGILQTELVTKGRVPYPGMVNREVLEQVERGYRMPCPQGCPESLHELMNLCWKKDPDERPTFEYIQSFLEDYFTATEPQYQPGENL

With `COc1cccc(-c2cc(=O)c3ccccc3o2)c1N` the residual activity (ADRBK1 (human)) was 99.6%, the residual activity (INSR (human)) was 106% and the residual activity (YES1 (human)) was 93.5%. The residual activity (FGR (human)) was 94.8%, the residual activity (TLK2 (human)) was 84.8% and the residual activity (PAK7 (human)) was 99.7%. The residual activity (MAP3K10 (human)) was 90%, the residual activity (CHEK1 (human)) was 103% and the residual activity (STK38 (human)) was 97.4%. The residual activity (CDC42BPA (human)) was 98.5%, the residual activity (DYRK1B (human)) was 88.1% and the residual activity (LYN (human)) was 94.6% and 98.7%. For the same molecule, the residual activity (CAMK1D (human)) was 65.3%, the residual activity (EGFR (human)) was 81.2% and the residual activity (ULK3 (human)) was 94.6%. The residual activity (NUAK1 (human)) was 98.1%, the residual activity (DAPK2 (human)) was 107% and the residual activity (ADRBK2 (human)) was 94.7%. For the same molecule, the residual activity (DSTYK (human)) was 97.1%, the residual activity (RPS6KA4 KD2 (human)) was 103% and the residual activity (RPS6KA1 KD1 KD2 (human)) was 92.7%. It also gave a residual activity (EPHA6 (human)) of 81.2%, a residual activity (BRAF (human)) of 93.6% and a residual activity (TAOK1 (human)) of 77.9%. It also gave a residual activity (CAMKK2 (human)) of 92.5%, a residual activity (TYRO3 (human)) of 96.9% and a residual activity (JAK2 JH1 JH2 (human)) of 104%. It also gave a residual activity (NTRK2 (human)) of 65.4%, a residual activity (SRMS (human)) of 104% and a residual activity (OXSR1 (human)) of 91.2%. It also gave a residual activity (PLK3 (human)) of 98%, a residual activity (ABL2 (human)) of 96.8% and a residual activity (PIM3 (human)) of 90.9%. It also gave a residual activity (ULK2 (human)) of 109%, a residual activity (WEE1 (human)) of 83% and a residual activity (STK25 (human)) of 106%. For the same molecule, the residual activity (ERBB2 (human)) was 106%, the residual activity (LCK (human)) was 99% and the residual activity (EPHB4 (human)) was 101%. The residual activity (PRKACG (human)) was 96%, the residual activity (MYO3B (human)) was 97.8% and the residual activity (PRKG1 (human)) was 108% and 111%.

`O=C(O)c1ccc2c3c1cccc3c(=O)n1c3ccccc3nc21` was tested, and the residual activity (ADRBK1 (human)) was 99.3%, the residual activity (INSR (human)) was 91.5% and the residual activity (YES1 (human)) was 96.6%. The residual activity (FGR (human)) was 98.9%, the residual activity (TLK2 (human)) was 91.2% and the residual activity (PAK7 (human)) was 98.7%. For the same molecule, the residual activity (MAP3K10 (human)) was 99.3%, the residual activity (CHEK1 (human)) was 101% and the residual activity (STK38 (human)) was 97.5%. For the same molecule, the residual activity (CDC42BPA (human)) was 96.1%, the residual activity (DYRK1B (human)) was 40.1% and the residual activity (LYN (human)) was 101% and 99.4%. For the same molecule, the residual activity (CAMK1D (human)) was 100%, the residual activity (EGFR (human)) was 96.5% and the residual activity (ULK3 (human)) was 79.8%. For the same molecule, the residual activity (NUAK1 (human)) was 41.3%, the residual activity (DAPK2 (human)) was 91.9% and the residual activity (ADRBK2 (human)) was 103%. For the same molecule, the residual activity (DSTYK (human)) was 103%, the residual activity (RPS6KA4 KD2 (human)) was 110% and the residual activity (RPS6KA1 KD1 KD2 (human)) was 101%. The residual activity (EPHA6 (human)) was 105%, the residual activity (BRAF (human)) was 95.1% and the residual activity (TAOK1 (human)) was 93.3%. For the same molecule, the residual activity (CAMKK2 (human)) was 7.88%, the residual activity (TYRO3 (human)) was 102% and the residual activity (JAK2 JH1 JH2 (human)) was 86.7%. For the same molecule, the residual activity (NTRK2 (human)) was 98.4%, the residual activity (SRMS (human)) was 106% and the residual activity (OXSR1 (human)) was 104%. It also gave a residual activity (PLK3 (human)) of 93.9%, a residual activity (ABL2 (human)) of 100% and a residual activity (PIM3 (human)) of 4.96%. For the same molecule, the residual activity (ULK2 (human)) was 93.9%, the residual activity (WEE1 (human)) was 84.6% and the residual activity (STK25 (human)) was 104%. It also gave a residual activity (ERBB2 (human)) of 99.7%, a residual activity (LCK (human)) of 101% and a residual activity (EPHB4 (human)) of 90.6%. The residual activity (PRKACG (human)) was 127%, the residual activity (MYO3B (human)) was 96.7% and the residual activity (PRKG1 (human)) was 94% and 95.1%.
